MIC90 data for two molecules are collected here from ChEMBL document CHEMBL4261616, “Discovery of heterocyclic replacements for the coumarin core of anti-tubercular FadD32 inhibitors” (Bioorg Med Chem Lett, 2018).

The structures appear in SMILES notation. ≈ marks a conversion by molar mass, not a printed value.

This test concerns Mycobacterium tuberculosis. In words: Antimycobacterial activity against Mycobacterium tuberculosis H37Rv harboring FadD32 mutant after 6 days by resazurin dye based fluorescence assay. In kind it is functional. For orientation: Resazurin is reduced to fluorescent resorufin, in cell work by metabolically active cells.

As to `Cc1cc2nccc(-c3ccccc3)c2c(C)c1-c1ccc(CN2CCOCC2)cc1`, the MIC90 is 15.6 µM (≈ 6.37 µg/mL).

For the molecule `CNC(=O)c1cc(-c2ccccc2Cl)c2c(C)c(-c3ccncc3)c(C)cc2n1`, the MIC90 turned out to be 6.25 µM (≈ 2.51 µg/mL).

The MIC90 is an inhibitory concentration at the 90% level, which refers to growth in some studies and to a panel of isolates in others. A higher MIC90 goes with weaker potency.
